This is an account of results in US4256753A, “4-(2-Pyridylamino)phenylacetic acid derivatives” (Dainippon Pharmaceutical Co., Ltd., priority 1978, dated 1981).

Like-named read-outs stand apart in the source and are kept apart here.

In data set [1] the test system is Phenylquinone-induced writhing. As to the kind of experiment: Phenylquinone-induced writhing in mice (PQW method). Particulars: Mus musculus, po, read-out: Analgesic ED50, PQW. It counts as in vivo. As for the experimental part: (a) Phenylquinone-induced writhing in mice (PQW method)
The test was carried out according to the method described in Proc. Soc. Exp. Biol. Med., 95, 729 (1957).

Data set [2] relates to Acetic acid-induced vascular permeability. As to the kind of experiment: Acetic acid-induced vascular permeability in mice (CAP method). The class given is in vivo. Particulars: Mus musculus, po, read-out: Anti-inflammatory ED50, CAP. On the procedure:
(b) Acetic acid-induced vascular permeability in mice (CAP method)
The test was carried out according to the method described in Brit. J. Pharm. Chemother., 22, 246 (1964).

Data set [3] deals with Carrageenin-induced hind paw edema. As to the kind of experiment: Carrageenin-induced hind paw edema in rats (CAR method). The class given is in vivo. Particulars: Rattus norvegicus, po, read-out: Anti-inflammatory ED50, CAR. As for the experimental part:
(a) Carrageenin-induced hind paw edema in rats (CAR method)
The test was carried out according to the method described in Proc. Soc. Exp. Biol. Med., 111, 544 (1962).
In general terms: In the carrageenan paw model, swelling and tenderness develop within hours.

Data set [4] concerns Acetic acid-induced writhing. As to the kind of experiment: Acetic acid-induced writhing in rats (ACWR method). Particulars: Rattus norvegicus, po, read-out: Analgesic ED50, ACWR. The class given is in vivo. On the procedure:
(b) Acetic acid-induced writhing in rats (ACWR method)
The test was carried out according to the method described in Arzneim. Forsch., 25, 1505 (1975).
(In writhing tests, fewer writhes than in controls are read as antinociception.)

Data set [5] in a line: Gastrointestinal ulcerogenicity in fasted rats. Particulars: rat, in vivo, po. On the procedure: The test was carried out using fasted rats according to the method described in Arzneim.
The test system of data set [6] is adjuvant-induced arthritis. Briefly: Prophylactic effect on adjuvant-induced arthritis in rats. Particulars: for Arthritic incidence: 80 mg/kg/day p.o., days 0-20, vehicle control 100. It counts as in vivo, female rats of JCL:SD strain.
A further data set can be described thus: Anti-allergic activity. Particulars: result in words, no test described.
A short description of another data set: in vivo. Particulars: mouse, po.
Setting [7] is: mice, acetic acid-induced vascular permeability.

The term ED50 denotes the dose that gives a 50% effect, or the effect in half of the subjects. In the case of `CC(C(=O)O)c1ccc(Nc2ccccn2)c(Cl)c1` (centres unmarked) [B, 2-[3-Chloro-4-(2'-pyridylamino)phenyl]propionic acid], the ED50 in data set [1] was 8.62 mg/kg; in data set [2] (setting [7]), 3.18 mg/kg; in data set [3], 13.1 mg/kg; in data set [4], 1.8 mg/kg.

`CC(C(=O)O)c1ccc(Oc2ccccn2)cc1` (centres unmarked) [Compound 3, 2-[4-(2'-Pyridyloxy)phenyl]propionic acid]: the ED50 in data set [1] worked out at 80 mg/kg; in data set [2] (setting [7]) it was 6.74 mg/kg; in data set [3], 20 mg/kg; in data set [4] it was 5.51 mg/kg.

The compound `CC(C)Cc1ccc(C(C)C(=O)O)cc1` (centres unmarked) [Compound 1, 2-(4-isobutylphenyl)propionic acid, reference compound] had a TD50 in data set [5] of 125 mg/kg. For the same compound, the Arthritic incidence in data set [6] is given as 85.7%. Further, the ED50 in data set [1] is 50 mg/kg; in data set [2], 7.11 mg/kg; in data set [4] it was 9.43 mg/kg. In addition, the anti-allergic activity entry in “Anti-allergic activity” was “does not show such an activity”.

In general, LD50 refers to the dose at which mortality reaches 50%. A lower LD50 goes with greater toxicity. The compound `CC(C(=O)O)c1ccc(Nc2ccccn2)cc1` (centres unmarked) [Compound A, 2-[4-(2'-Pyridylamino)phenyl]propionic acid] displayed a TD50 in data set [5] greater than 640 mg/kg. In addition, the selectivity ratio in data set [5] (rats, p.o., UD50 divided by ED50 of CAR method, read-out: Safety index, ratio of UD50/ED50 (CAR method)) was greater than 64. Moreover, the Arthritic incidence in data set [6] was determined as 0%. Besides, the “Arthritic index mean ± S.E., 22nd day” value in data set [6] (rat, in vivo) came out at 1.3 ± 0.8. The “Arthritic index mean ± S.E., 28th day” value in data set [6] (rat, in vivo) worked out at 1.3 ± 0.6. Further, the ED50 in data set [1] was 7.33 mg/kg; in data set [2] (setting [7]) it was 0.88 mg/kg; in data set [3], 10 mg/kg; in data set [4], 1.36 mg/kg. In the data set “in vivo”, this compound displayed an LD50 at 168 h of 1910 mg/kg. In addition, the anti-allergic activity result in the data set “Anti-allergic activity” is “shows an anti-allergic activity”.

Regarding `CC(C(=O)O)c1ccc(N(C)c2ccccn2)cc1` (centres unmarked) [Compound 2, 2-[4-[N-Methyl-N-(2'-pyridyl)amino]phenyl]propionic acid], the ED50 in data set [1] is greater than 100 mg/kg; in data set [2] (setting [7]), greater than 20 mg/kg; in data set [3], 40 mg/kg; in data set [4], 20 mg/kg.
